Non-standard residues stand in square brackets, D forms with d. Residues, ends and D or L forms follow the SMILES beside them. *: point of attachment. Hexenoyl(2E,4S-Me) = CC[C@H](C)/C=C/C(=O)*; Leu(3R-OH) = CC(C)[C@@H](O)[C@H](N)C(=O)O; NH((S)CH(Me)CH2NMe2) = C[C@@H](CN(C)C)N*; Gly(octyl) = CCCCCCCC[C@H](N)C(=O)O; X3 = O=C(c1coc(-c2ccccc2)n1)*; X5 = CN(C)[C@H]1CCCC[C@@H]1N*; Lauroyl = CCCCCCCCCCCC(=O)*; X4 = O=C(C1CCc2ccccc2C1)*; Hexanoyl = CCCCCC(=O)*; Aib = CC(C)(N)C(=O)O; X12 = CCC/C=C/C(=O)*; X7 = CN(C)CC(C)(C)N*; X9 = c1ccn(CCN*)c1; X2 = CN(C)CCN(C)*; βAla = NCCC(=O)O
Experiments:
[1] = tested on: Trypanosoma brucei rhodesiense (STIB 900 strain); experiment: Alamar Blue assay against Trypanosoma brucei rhodesiense grown in axenic medium; format: cell-based; details: In vitro inhibition, read-out: T.b.rhod.
Summary of the method: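 T. b. rhodesiense STIB 900 cultured in axenic medium and exposed to samples in an Alamar Blue viability assay, run in triplicate. IC50 calculated from the readout; melarsoprol served as reference drug.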

[2] = tested on: Trypanosoma cruzi trypomastigote forms (Tulahuen strain); experiment: Intracellular Trypanosoma cruzi assay in L6-cells, beta-galactosidase/CPRG readout; format: cell-based; details: In vitro inhibition, read-out: T.cruzi.
Summary of the method: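 L6 rat myoblasts infected with Tulahuen C2C4 LacZ T. cruzi; after incubation, CPRG/Nonidet substrate added and colour developed 2–6 h. Absorbance at 540 nm; IC50 calculated; triplicate tests.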

[3] = tested on: Axenically grown Leishmania donovani amastigotes (strain MHOM/ET/67/L82); experiment: Axenic Leishmania donovani amastigote resazurin assay; format: cell-based; details: In vitro inhibition, read-out: L.don. ax
Summary of the method: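 Strain MHOM/ET/67/L82 amastigotes grown axenically and tested in triplicate by resazurin assay. Plates developed 2-4 hours, fluorescence read at 536 nm excitation/588 nm emission and expressed as percentage of negative control.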

[4] = tested on: intracellular Leishmania donovani (L.don. InMac); experiment: Intracellular Leishmania donovani assay (L.don. InMac); format: cell-based; details: In vitro inhibition
Excerpt: (§1) Tests were done in triplicate.

Plasmodium falciparum = experiment: 3H-hypoxanthine incorporation assay against Plasmodium falciparum; format: cell-based; details: In vitro inhibition, read-out: P.falc NF5
Method: as §1
IC50 values were calculated by linear interpolation.

[5] = Cytotoxicity assay on L6-cells (Alamar Blue); details: rat, Cytotox L6, Cytotoxicity against rat myoblast cells (L6)

Row | SMILES | IC50 [1] | IC50 [2] | IC50 [3] | IC50 [4] | IC50 (Plasmodium falciparum) | IC50 at 70 h [5]
1 | CCCCCCCC[C@H](NC(=O)[C@@H]1CCCN1C(=O)CCCCC)C(=O)N[C@@H](CC(C)C)C(=O)NC(C)(C)C(=O)N[C@@H](CC(C)C)C(=O)N[C@@H](CC(C)C)C(=O)NC(C)(C)C(=O)NC(C)(C)C(=O)NCCC(=O)NC(C)(C)CN(C)C [Compound 5889, (2S)-N-[(1S)-1-[(1-{[(1S)-1-{[(1S)-1-{[1-({1-[(2-{[1-(dimethylamino)-2-methylpropan-2-yl]carbamoyl}ethyl)carbamoyl]-1-methylethyl}carbamoyl)-1-methylethyl]carbamoyl}-3-methylbutyl]carbamoyl}-3-methylbutyl]carbamoyl}-1-methylethyl)carbamoyl]-3-methylbutyl]-2-{[(2S)-1-hexanoylpyrrolidin-2-yl]formamido}decanamide] (Hexanoyl-P[Gly(octyl)]L[Aib]LL[Aib][Aib][βAla]-X7) | 15.9 nM | 248 nM | 11100 nM | 86.5 nM | 199 nM | 959 nM
2 | CCCCCCCC[C@H](NC(=O)[C@@H]1CCCN1C(=O)/C=C/[C@@H](C)CC)C(=O)N[C@H](C(=O)NC(C)(C)C(=O)N[C@@H](CC(C)C)C(=O)N[C@@H](CC(C)C)C(=O)NC(C)(C)C(=O)NC(C)(C)C(=O)NCCC(=O)N[C@@H](C)CN(C)C)[C@H](O)C(C)C [Compound 5488, (2S)-N-[(1S,2R)-1-[(1-{[(1S)-1-{[(1S)-1-{[1-({1-[(2-{[(2S)-1-(dimethylamino)propan-2-yl]carbamoyl}ethyl)carbamoyl]-1-methylethyl}carbamoyl)-1-methylethyl]carbamoyl}-3-methylbutyl]carbamoyl}-3-methylbutyl]carbamoyl}-1-methylethyl)carbamoyl]-2-hydroxy-3-methylbutyl]-2-{[(2S)-1-[(2E,4S)-4-methylhex-2-enoyl]pyrrolidin-2-yl]formamido}decanamide] ({Hexenoyl(2E,4S-Me)}-P[Gly(octyl)][Leu(3R-OH)][Aib]LL[Aib][Aib][βAla]-{NH((S)CH(Me)CH2NMe2)}) | 2 nM | 33.6 nM | 0.6 nM | 20.2 nM | 2.6 nM | 666 nM
3 | CCCCCCCC[C@H](NC(=O)c1coc(-c2ccccc2)n1)C(=O)N[C@@H](CC(C)C)C(=O)NC(C)(C)C(=O)N[C@@H](CC(C)C)C(=O)N[C@@H](CC(C)C)C(=O)NC(C)(C)C(=O)NC(C)(C)C(=O)NCCC(=O)N[C@@H](C)CN(C)C [Compound 5943, (2S)-N-[(1S)-1-[(1-{[(1S)-1-{[(1S)-1-{[1-({1-[(2-{[(2S)-1-(dimethylamino)propan-2-yl]carbamoyl}ethyl)carbamoyl]-1-methylethyl}carbamoyl)-1-methylethyl]carbamoyl}-3-methylbutyl]carbamoyl}-3-methylbutyl]carbamoyl}-1-methylethyl)carbamoyl]-3-methylbutyl]-2-[(2-phenyl-1,3-oxazol-4-yl)formamido]decanamide] (X3-[Gly(octyl)]L[Aib]LL[Aib][Aib][βAla]-{NH((S)CH(Me)CH2NMe2)}) | 0.5 nM | 156 nM | 18700 nM | < 36.1 nM | 15.3 nM | 552 nM
4 | CCCCCCCC[C@H](NC(=O)[C@@H]1CCCN1C(=O)CCCCC)C(=O)N[C@@H](CC(C)C)C(=O)NC(C)(C)C(=O)N[C@@H](CC(C)C)C(=O)N[C@@H](CC(C)C)C(=O)NC(C)(C)C(=O)NC(C)(C)C(=O)NCCC(=O)N[C@H]1CCCC[C@@H]1N(C)C [Compound 5883, (2S)-N-[(1S)-1-[(1-{[(1S)-1-{[(1S)-1-{[1-({1-[(2-{[(1S,2S)-2-(dimethylamino)cyclohexyl]carbamoyl}ethyl)carbamoyl]-1-methylethyl}carbamoyl)-1-methylethyl]carbamoyl}-3-methylbutyl]carbamoyl}-3-methylbutyl]carbamoyl}-1-methylethyl)carbamoyl]-3-methylbutyl]-2-{[(2S)-1-hexanoylpyrrolidin-2-yl]formamido}decanamide] (Hexanoyl-P[Gly(octyl)]L[Aib]LL[Aib][Aib][βAla]-X5) | 41300 nM | 460 nM | 19800 nM | 131 nM | 25300 nM | 1480 nM
5 | CCCCCCCC[C@H](NC(=O)C1CCc2ccccc2C1)C(=O)N[C@@H](CC(C)C)C(=O)NC(C)(C)C(=O)N[C@@H](CC(C)C)C(=O)N[C@@H](CC(C)C)C(=O)NC(C)(C)C(=O)NC(C)(C)C(=O)NCCC(=O)N[C@@H](C)CN(C)C (stereo partly drawn) [Compound 5944, (2S)-N-[(1S)-1-[(1-{[(1S)-1-{[(1S)-1-{[1-({1-[(2-{[(2S)-1-(dimethylamino)propan-2-yl]carbamoyl}ethyl)carbamoyl]-1-methylethyl}carbamoyl)-1-methylethyl]carbamoyl}-3-methylbutyl]carbamoyl}-3-methylbutyl]carbamoyl}-1-methylethyl)carbamoyl]-3-methylbutyl]-2-[(1,2,3,4-tetrahydronaphthalen-2-yl)formamido]decanamide] (X4-[Gly(octyl)]L[Aib]LL[Aib][Aib][βAla]-{NH((S)CH(Me)CH2NMe2)}) | 0.1 nM | 5 nM | 0.6 nM | < 36.5 nM | 42500 nM | 137 nM
6 | CCCCCCCC[C@H](NC(=O)[C@@H]1CCCN1C(=O)CCCCC)C(=O)N[C@@H](CC(C)C)C(=O)NC(C)(C)C(=O)N[C@@H](CC(C)C)C(=O)N[C@@H](CC(C)C)C(=O)NC(C)(C)C(=O)NC(C)(C)C(=O)NCCC(=O)NCCn1cccc1 [Compound 5887, (2S)-2-{[(2S)-1-hexanoylpyrrolidin-2-yl]formamido}-N-[(1S)-3-methyl-1-[(1-methyl-1-{[(1S)-3-methyl-1-{[(1S)-3-methyl-1-{[1-methyl-1-({1-methyl-1-[(2-{[2-(1H-pyrrol-1-yl)ethyl]carbamoyl}ethyl)carbamoyl]ethyl}carbamoyl)ethyl]carbamoyl}butyl]carbamoyl}butyl]carbamoyl}ethyl)carbamoyl]butyl]decanamide] (Hexanoyl-P[Gly(octyl)]L[Aib]LL[Aib][Aib][βAla]-X9) | 46800 nM | 262 nM | 35500 nM | 41.7 nM | 42700 nM | 479 nM
7 | CCC/C=C/C(=O)N1CCC[C@H]1C(=O)N[C@@H](CCCCCCCC)C(=O)N[C@H](C(=O)NC(C)(C)C(=O)N[C@@H](CC(C)C)C(=O)N[C@@H](CC(C)C)C(=O)NC(C)(C)C(=O)NC(C)(C)C(=O)NCCC(=O)N[C@@H](C)CN(C)C)[C@H](O)C(C)C [Compound 5514, (2S)-N-[(1S,2R)-1-[(1-{[(1S)-1-{[(1S)-1-{[1-({1-[(2-{[(2S)-1-(dimethylamino)propan-2-yl]carbamoyl}ethyl)carbamoyl]-1-methylethyl}carbamoyl)-1-methylethyl]carbamoyl}-3-methylbutyl]carbamoyl}-3-methylbutyl]carbamoyl}-1-methylethyl)carbamoyl]-2-hydroxy-3-methylbutyl]-2-{[(2S)-1-[(2E)-hex-2-enoyl]pyrrolidin-2-yl]formamido}decanamide] (X12-P[Gly(octyl)][Leu(3R-OH)][Aib]LL[Aib][Aib][βAla]-{NH((S)CH(Me)CH2NMe2)}) | 0.2 nM | 20.1 nM | 0.4 nM | 96.8 nM | 0.8 nM | 316 nM
8 | CCCCCCCC[C@H](NC(=O)[C@@H]1CCCN1C(=O)CCCCC)C(=O)N[C@@H](CC(C)C)C(=O)NC(C)(C)C(=O)N[C@@H](CC(C)C)C(=O)N[C@@H](CC(C)C)C(=O)NC(C)(C)C(=O)NC(C)(C)C(=O)NCCC(=O)N(C)CCN(C)C [Compound 5644, (2S)-N-[(1S)-1-[(1-{[(1S)-1-{[(1S)-1-{[1-({1-[(2-{[2-(dimethylamino)ethyl](methyl)carbamoyl}ethyl)carbamoyl]-1-methylethyl}carbamoyl)-1-methylethyl]carbamoyl}-3-methylbutyl]carbamoyl}-3-methylbutyl]carbamoyl}-1-methylethyl)carbamoyl]-3-methylbutyl]-2-{[(2S)-1-hexanoylpyrrolidin-2-yl]formamido}decanamide] (Hexanoyl-P[Gly(octyl)]L[Aib]LL[Aib][Aib][βAla]-X2) | 208 nM | 1470 nM | 148 nM | 844 nM | 26 nM | 1240 nM
9 | CCCCCCCCCCCC(=O)N1CCC[C@H]1C(=O)N[C@@H](CCCCCCCC)C(=O)N[C@@H](CC(C)C)C(=O)NC(C)(C)C(=O)N[C@@H](CC(C)C)C(=O)N[C@@H](CC(C)C)C(=O)NC(C)(C)C(=O)NC(C)(C)C(=O)NCCC(=O)N[C@@H](C)CN(C)C [Compound 5651, (2S)-N-[(1S)-1-[(1-{[(1S)-1-{[(1S)-1-{[1-({1-[(2-{[(2S)-1-(dimethylamino)propan-2-yl]carbamoyl}ethyl)carbamoyl]-1-methylethyl}carbamoyl)-1-methylethyl]carbamoyl}-3-methylbutyl]carbamoyl}-3-methylbutyl]carbamoyl}-1-methylethyl)carbamoyl]-3-methylbutyl]-2-{[(2S)-1-dodecanoylpyrrolidin-2-yl]formamido}decanamide] (Lauroyl-P[Gly(octyl)]L[Aib]LL[Aib][Aib][βAla]-{NH((S)CH(Me)CH2NMe2)}) | 3.3 nM | 1370 nM | 53 nM | 707 nM | 0.8 nM | 498 nM
